Substitutions are numbered along the chain they refer to.

The target of assay [1] is T1, TRPV3 Y594F mutation (Homo sapiens, UniProt Q8NET8, Y594F).
T1 construct: YFP or GFP; expressed in transfected cells; host or cells: HEK293T
T1 sequence (Q8NET8 1-790 Y594F): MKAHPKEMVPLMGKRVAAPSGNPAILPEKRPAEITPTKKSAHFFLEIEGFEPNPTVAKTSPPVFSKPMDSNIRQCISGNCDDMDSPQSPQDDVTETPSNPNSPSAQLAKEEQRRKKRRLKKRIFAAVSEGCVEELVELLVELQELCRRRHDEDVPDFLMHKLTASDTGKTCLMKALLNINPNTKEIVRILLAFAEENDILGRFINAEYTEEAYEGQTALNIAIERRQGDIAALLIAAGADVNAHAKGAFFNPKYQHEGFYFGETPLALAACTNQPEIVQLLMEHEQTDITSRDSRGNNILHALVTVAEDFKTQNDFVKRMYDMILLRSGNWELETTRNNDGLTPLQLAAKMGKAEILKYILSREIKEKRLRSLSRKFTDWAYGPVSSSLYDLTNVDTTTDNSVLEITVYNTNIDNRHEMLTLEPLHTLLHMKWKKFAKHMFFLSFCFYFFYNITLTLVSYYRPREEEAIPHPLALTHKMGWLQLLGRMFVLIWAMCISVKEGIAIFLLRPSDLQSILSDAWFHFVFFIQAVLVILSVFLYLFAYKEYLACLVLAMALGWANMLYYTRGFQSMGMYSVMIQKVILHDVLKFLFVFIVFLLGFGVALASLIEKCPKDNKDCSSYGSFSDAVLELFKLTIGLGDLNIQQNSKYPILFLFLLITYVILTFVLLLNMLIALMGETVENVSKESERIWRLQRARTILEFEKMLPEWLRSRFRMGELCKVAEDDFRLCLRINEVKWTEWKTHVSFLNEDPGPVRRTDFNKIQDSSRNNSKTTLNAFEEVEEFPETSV
Description: Whole-cell recording of TRPV3 Y594F mutant. It counts as cell-based. The note with it: 1 mM 2-APB, ± 80 mV. An excerpt:
(§1) As we mentioned above, HCQ may act as a pore blocker of TRPV3. To probe the binding configuration of HCQ to TRPV3, we carried out molecular docking using Rosetta suite (https://rosettacommons.org) ([21]) and validated the docking models with point mutations in TRPV3 (Fig. 4A). […] Furthermore, when we introduced L670A to L591A mutant, we also observed a left shift on the concentration–response curve on this double mutant as compared to L591A mutant (Fig. 4H).
(§2) Figure 4 Residues of the pore domain are critical for HCQ inhibition on TRPV3.A, left panel, docking model of HCQ to the pore domain of TRPV3 structure (6uw4). Right panels, top view and side view of the HCQ-binding pocket. B-J, representative whole-cell recording of TRPV3 and mutants in response to 1 mM 2-APB, the mixture of 1 mM 2-APB and concentration gradients of HCQ with the holding potential of ± 80 mV. K, concentration–response curves of HCQ in WT TRPV3 and mutants (n = 3–5 cells). L, quantification of the inhibitory ratio of HCQ (100 μM) on WT, L591A, and N671Q. […]
All data from whole-cell recordings were analyzed in Igor Pro (WaveMetrics). IC50 values were determined by fitting the Hill equation to concentration-response relationships. […]

Assay [2] has as its target T2, TRPV3 L670A + L591A double mutant (Homo sapiens, UniProt Q8NET8, L591A/L670A).
T2 construct: YFP or GFP; expressed in transfected cells; host or cells: HEK293T
T2 sequence (Q8NET8 1-790 L591A/L670A): T1 sequence (Q8NET8 1-790 Y594F) with L591A, F594Y, L670A
Put plainly: Whole-cell recording of TRPV3 L591A/L670A double mutant. It is filed as cell-based. The note with it: L670A introduced to L591A mutant.
From the text: as §1
as §2, with “N671Q. Data are presented as mean ± SEM (n = 3–6 cells); F (2, 10) = 8.115, p = 0.0081 by one-way ANOVA using Dunnett’s multiple comparisons test. ∗∗, p = 0.0070 WT versus L591A; ∗, p = 0.0100 WT versus N671Q. 2-APB, 2-aminoethoxydiphenylborate; HCQ, hydroxychloroquine; TRP, transient receptor potential; TRPV3, transient receptor potential vanilloid 3 channel.” for “N671Q.”

For orientation: IC50 means the concentration at which inhibition is half-maximal. Low readings indicate inhibition by little substance, high ones a need for much substance. For the compound `CCN(CCO)CCCC(C)Nc1ccnc2cc(Cl)ccc12` (centres unmarked) [HCQ, hydroxychloroquine], in assay [1], the IC50 amounted to 34.8 ± 1.59 µM. The “shift of concentration–response curve on double mutant as compared to L591A mutant” value in assay [2] was “left shift”.
